From patent US7033595B1, “Pseudotyped retroviruses and stable cell lines for their production” (priority 1998, dated 2006)

Key:
Assay type in all cases: cell-based
[1] = tested on: VSV-G pseudotyped retrovirus
[2] = tested on: Ross-River E2-E1 pseudotyped retrovirus
wild type MMLV = tested on: wild type MMLV

Compound	inhibition of VSV-G pseudotyped retrovirus entry [1]	inhibition of transduction by Ross River glycoprotein-pseudotyped viruses [2]	effect on wild type MMLV entry (wild type MMLV)
Cl.N [ammonium chloride]	inhibit	dramatic inhibition	–
CCN(CC)CCCC(C)Nc1ccnc2cc(Cl)ccc12 (centres unmarked) [chloroquine]	inhibit	dramatic inhibition	only partially affects
